Nine molecules from PubChem BioAssay (NCI) can be followed below.

Among the test systems are SF-539 CNS; CCRF-CEM leukemia; SK-MEL-2 melanoma; OVCAR-8 ovarian; TK-10 renal; SK-MEL-5 melanoma; HCC-2998 colon; SK-OV-3 ovarian; 786-0 renal; HOP-62 NSCLC; HOP-92 NSCLC; BT-549 breast; MCF7 breast; SF-268 CNS; OVCAR-4 ovarian; SNB-19 CNS.
Holding throughout (experiment): NCI-60 cell line screen, 48 h

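Method: 48-hour compound exposure of cells in 96-well plates, five concentrations, linear interpolation of endpoints. TGI denotes the concentration required for complete inhibition of growth.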

Turning to `Oc1c(Br)cc(/C=C/c2ccnc(/C=C/c3cc(Br)c(O)c(Br)c3)c2)cc1Br`, the TGI was 33 µM in the experiment on SF-539 CNS; above 100 µM in the experiment with CCRF-CEM leukemia; 34.4 µM with SK-MEL-2 melanoma; 83.9 µM with OVCAR-8 ovarian; 75 µM in the experiment with TK-10 renal; 41 µM in the experiment with SK-MEL-5 melanoma. The TGI in the experiment with HCC-2998 colon was above 100 µM; in the experiment with SK-OV-3 ovarian, above 100 µM; in the experiment on 786-0 renal, 35.3 µM; with HOP-62 NSCLC, above 100 µM; in the experiment with HOP-92 NSCLC, above 100 µM; in the experiment with BT-549 breast it was above 100 µM. Further, the TGI in the experiment on MCF7 breast was 60.3 µM; with SF-268 CNS, above 100 µM; in the experiment on OVCAR-4 ovarian it was 87.2 µM; in the experiment with SNB-19 CNS, above 100 µM.

For `N#CC(c1ccccc1)N(CCCCCCN(C(=O)c1ccccc1)C(C#N)c1ccccc1)C(=O)c1ccccc1` (stereo not given), the TGI in the experiment with SF-539 CNS was above 100 µM; with CCRF-CEM leukemia it was above 100 µM; with SK-MEL-2 melanoma, 66.3 µM; with OVCAR-8 ovarian, above 100 µM; in the experiment on TK-10 renal, 62.6 µM; in the experiment with SK-MEL-5 melanoma, 32.9 µM. The TGI in the experiment on HCC-2998 colon is 48.1 µM; with SK-OV-3 ovarian it was above 100 µM; in the experiment on 786-0 renal, above 100 µM; with HOP-92 NSCLC, 50.3 µM; with BT-549 breast it was above 100 µM; in the experiment on MCF7 breast it was above 100 µM. Further, the results for the TGI with SF-268 CNS, in the experiment on OVCAR-4 ovarian and in the experiment with SNB-19 CNS were above 100 µM, 91.2 µM and above 100 µM, respectively.

As to `CC(C)[N+]([O-])(CCCNc1c2ccccc2nc2cccc([N+](=O)[O-])c12)C(C)C`, the TGI was determined as 0.24 µM in the experiment with SF-539 CNS; 1.98 µM with CCRF-CEM leukemia; 1.24 µM with SK-MEL-2 melanoma; 0.628 µM in the experiment with OVCAR-8 ovarian; 1.4 µM in the experiment on TK-10 renal; 0.0628 µM in the experiment with SK-MEL-5 melanoma. The TGI in the experiment on HCC-2998 colon came out at 0.0227 µM; with SK-OV-3 ovarian, 2.08 µM; with 786-0 renal, 10.1 µM; in the experiment with HOP-62 NSCLC it was 1.77 µM; in the experiment with HOP-92 NSCLC it was 0.196 µM; in the experiment on BT-549 breast it was 0.221 µM. Besides, the TGI worked out at 14.9 µM with MCF7 breast, 3.14 µM in the experiment on SF-268 CNS, 0.433 µM in the experiment on OVCAR-4 ovarian and 5.17 µM with SNB-19 CNS.

As for `CNC(=O)C(C)NC(=O)C(Cc1ccccc1)NC(=O)c1ccccc1` (stereo not given), the TGI in the experiment with SF-539 CNS, with CCRF-CEM leukemia, in the experiment on SK-MEL-2 melanoma, in the experiment on OVCAR-8 ovarian, in the experiment on TK-10 renal and in the experiment on SK-MEL-5 melanoma was above 100 µM each time. The TGI in the experiment on HCC-2998 colon, in the experiment on SK-OV-3 ovarian, in the experiment with 786-0 renal, with HOP-62 NSCLC, in the experiment with HOP-92 NSCLC and in the experiment with BT-549 breast was above 100 µM throughout. Also, the TGI in the experiment with MCF7 breast, in the experiment with SF-268 CNS, in the experiment with OVCAR-4 ovarian and in the experiment on SNB-19 CNS was above 100 µM in each case.

On to `NC1N=C(c2ccc(Cl)cc2)C2=C(N1)c1ccccc1CC2` (stereo not given), for which the TGI in the experiment on SF-539 CNS was above 100 µM; in the experiment with CCRF-CEM leukemia it was above 100 µM; in the experiment with SK-MEL-2 melanoma, 46.6 µM; in the experiment with OVCAR-8 ovarian it was above 100 µM; in the experiment on TK-10 renal, above 100 µM; in the experiment on SK-MEL-5 melanoma, above 56.3 µM. Besides, the TGI in the experiment on HCC-2998 colon is 18.5 µM; with SK-OV-3 ovarian it was above 100 µM; in the experiment on 786-0 renal it was above 73.1 µM; in the experiment with HOP-62 NSCLC, above 82.7 µM; in the experiment with HOP-92 NSCLC it was above 100 µM; in the experiment with BT-549 breast it was above 100 µM. The TGI in the experiment on MCF7 breast is above 46.8 µM; in the experiment on SF-268 CNS, above 100 µM; in the experiment on OVCAR-4 ovarian, 88.2 µM; in the experiment with SNB-19 CNS, above 100 µM.

Turning to `O=C1/C(=C/c2cccc(Cl)c2)CCCc2ccccc21`, the TGI with SF-539 CNS stood at 32.1 µM; in the experiment on CCRF-CEM leukemia, 30.4 µM; in the experiment on SK-MEL-2 melanoma it was 31.2 µM; in the experiment with OVCAR-8 ovarian, 33.6 µM; with TK-10 renal it was 34.9 µM; with HCC-2998 colon it was 32.5 µM. Also, the TGI in the experiment on SK-OV-3 ovarian was above 100 µM; in the experiment with 786-0 renal, 33.7 µM; in the experiment on HOP-62 NSCLC, 49 µM; with HOP-92 NSCLC, 60.4 µM; with BT-549 breast it was 44.5 µM; in the experiment with MCF7 breast, 27.4 µM. Further, the TGI in the experiment on SF-268 CNS was determined as 33.4 µM; in the experiment on OVCAR-4 ovarian, 31.4 µM; with SNB-19 CNS, 31.5 µM.

On to `CCOC1CN=C(Nc2cccc3ccccc23)S1` (stereo not given), for which the TGI in the experiment with SF-539 CNS, in the experiment on CCRF-CEM leukemia, in the experiment on SK-MEL-2 melanoma, in the experiment on OVCAR-8 ovarian, in the experiment with TK-10 renal and with SK-MEL-5 melanoma was above 10 µM in each case. Besides, the TGI with HCC-2998 colon, with SK-OV-3 ovarian, in the experiment with 786-0 renal, in the experiment with HOP-62 NSCLC, in the experiment with HOP-92 NSCLC and in the experiment on BT-549 breast was above 10 µM in each case. The TGI in the experiment on MCF7 breast, in the experiment with SF-268 CNS, in the experiment with OVCAR-4 ovarian and with SNB-19 CNS was above 10 µM each time.

For the molecule `CCOC(=O)c1nc2cc(C(F)(F)F)ccc2nc1Oc1ccc(C#N)cc1`, the TGI in the experiment on SF-539 CNS, in the experiment with CCRF-CEM leukemia, in the experiment with SK-MEL-2 melanoma, with OVCAR-8 ovarian, in the experiment with TK-10 renal and in the experiment on SK-MEL-5 melanoma was above 100 µM in each case. The TGI with HCC-2998 colon, with 786-0 renal, with HOP-92 NSCLC, in the experiment with BT-549 breast, in the experiment on MCF7 breast and in the experiment with SF-268 CNS was above 100 µM throughout. The TGI in the experiment on OVCAR-4 ovarian and with SNB-19 CNS was above 100 µM in each case.

In the case of `CN(C)C(C1=C(O)C(c2ccccc2)N(c2ccccc2)C1=O)N1CCOCC1` (stereo not given), the TGI with SF-539 CNS, with CCRF-CEM leukemia, in the experiment on SK-MEL-2 melanoma, with OVCAR-8 ovarian, in the experiment with TK-10 renal and with SK-MEL-5 melanoma was above 10 µM throughout. Moreover, the TGI in the experiment on HCC-2998 colon, in the experiment with SK-OV-3 ovarian, in the experiment with 786-0 renal, in the experiment with HOP-62 NSCLC, in the experiment with HOP-92 NSCLC and with BT-549 breast was above 10 µM in each case. Besides, the TGI with MCF7 breast, in the experiment with SF-268 CNS, with OVCAR-4 ovarian and with SNB-19 CNS was above 10 µM in each case.
